GI50 and IC50 data for twelve molecules are collected here from ChEMBL document CHEMBL1140060, “Design, synthesis and biological evaluation of dihydronaphthalene and benzosuberene analogs of the combretastatins as inhibitors of tubulin polymerization in cancer chemotherapy” (Bioorg Med Chem, 2008).

One test concerns DU-145. As to the kind of experiment: Growth inhibition of human DU145 after 48 hrs by SRB assay. As to conditions: DU-145, 48 h. The test is classed as functional.
The test system of the next test is NCI-H460. As to the kind of experiment: Growth inhibition of human NCI-H460 after 48 hrs by SRB assay. In kind it is functional. As to conditions: NCI-H460, 48 h.
The nature of test [1]: Inhibition of calf brain tubulin polymerization. Set-up: species or system Bos taurus.
A further test concerns SK-OV-3. As to the kind of experiment: Growth inhibition of human SK-OV-3 after 48 hrs by SRB assay. In kind it is functional. As to conditions: SK-OV-3, 48 h.

As to `COc1ccc(C(=O)C2=CCCCc3c2cc(OC)c(OC)c3OC)cc1O`, the GI50 in the test on DU-145 and with NCI-H460 was greater than 10000 nM throughout. Moreover, the IC50 in test [1] was greater than 40 µM.
With `COc1ccc(C(=O)C2=CCCc3c2cc(OC)c(OC)c3OC)c(O)c1O`, the GI50 in the test with SK-OV-3 is 1400 nM; in the test on DU-145 it was 3400 nM; in the test with NCI-H460 it was 2800 nM. Moreover, in test [1], the IC50 is greater than 40 µM.
Taken in the same sequence, the figures for `COc1ccc2c(c1)CCCC=C2c1cc(OC)c(OC)c(OC)c1` were 52 nM, 27 nM, 51 nM and 1.4 µM.
Taken in the same sequence, the figures for `COc1ccc2c(c1O)CCCC(c1cc(OC)c(OC)c(OC)c1)=C2` were 270 nM, 440 nM, 1200 nM and greater than 40 µM.
As for `COc1ccc(C(=O)C2=CCCCc3c2cc(OC)c(OC)c3OC)c(O)c1O`, the GI50 with DU-145 and in the test on NCI-H460 was greater than 10000 nM each time. Further, in test [1], the half-inhibitory concentration (IC50) is greater than 40 µM.
For the molecule `COc1ccc2c(c1)CCCC(c1cc(OC)c(OC)c(OC)c1)=C2`, the figures for the GI50 with SK-OV-3, with DU-145 and with NCI-H460 were 440 nM, 550 nM and 470 nM, respectively. Also, the IC50 in test [1] was greater than 40 µM.
For `COc1ccc(C(=O)C2=CCCc3c2cc(OC)c(OC)c3OC)cc1O`, the results for the concentration for 50% growth inhibition (GI50) in the test with DU-145 and in the test on NCI-H460 were 3100 nM and 6000 nM, respectively. Moreover, the IC50 in test [1] is 24 µM.
Taken in the same sequence, the figures for `COc1cc2c(cc1O)C(=O)C1c3cc(OC)c(OC)c(OC)c3CCC21` (stereo not given) were greater than 10000 nM, greater than 10000 nM and greater than 40 µM.
With `COc1ccc(CC2CCCCc3c2cc(OC)c(OC)c3OC)c(O)c1O` (stereo not given), the concentration for 50% growth inhibition (GI50) with DU-145 and in the test with NCI-H460 was greater than 10000 nM each time. For the same molecule, the IC50 in test [1] was determined as 7.4 µM.
Regarding `COc1ccc2c(c1O)CCCC=C2c1cc(OC)c(OC)c(OC)c1`, the GI50 with SK-OV-3 is less than 0.03 nM; in the test on DU-145, 0.0032 nM; in the test with NCI-H460, 0.028 nM. The molecule also displayed a concentration for half-maximal inhibition (IC50) in test [1] of 1.7 µM.
As to `COc1ccc(/C=C\c2cc(OC)c(OC)c(OC)c2)cc1O` [COMBRETASTATIN A4], the GI50 in the test with SK-OV-3 was found to be 0.13 nM; with DU-145 it was 2 nM; in the test with NCI-H460, 2 nM.
`COc1ccc(/C=C\c2cc(OC)c(OC)c(OC)c2)c(O)c1O` [COMBRETASTATIN A-1]: the GI50 was 510 nM in the test on DU-145 and 2200 nM with NCI-H460.
